In the NIST ThermoML archive (doi:10.1021/je060149b) one finds binary diffusion coefficient data, which are given here for ten compounds.

A short description of this data set: xn = mol fraction of the nth substance listed. As to conditions: 101 kPa, Liquid, Taylor dispersion method, x1 = 0.

With `CCC(N)C(=O)O` (stereo not drawn) [(.+-.)-α-aminobutyric acid] + O, the binary diffusion coefficient runs as follows: (293.2 K) 7.29e-10 m2/s; (298.2 K) 8.39e-10 m2/s; (303.2 K) 9.48e-10 m2/s; (313.2 K) 1.2e-09 m2/s; (323.2 K) 1.49e-09 m2/s; (333.2 K) 1.8e-09 m2/s.
For the compound `NCC(=O)O` [2-aminoacetic acid] + O, the binary diffusion coefficient is, setting by setting: (293.2 K) 9.36e-10 m2/s; (298.2 K) 1.06e-09 m2/s; (303.2 K) 1.22e-09 m2/s; (313.2 K) 1.5e-09 m2/s; (323.2 K) 1.86e-09 m2/s; (333.2 K) 2.22e-09 m2/s.
For `CCC[C@H](N)C(=O)O` [(S)-2-aminopentanoic acid] + O, the binary diffusion coefficient is, setting by setting: (293.2 K) 6.77e-10 m2/s; (298.2 K) 7.75e-10 m2/s; (303.2 K) 8.79e-10 m2/s; (313.2 K) 1.12e-09 m2/s; (323.2 K) 1.39e-09 m2/s; (333.2 K) 1.69e-09 m2/s.
In the case of `C[C@H](N)C(=O)O` [(S)-2-aminopropanoic acid] + O, the binary diffusion coefficient amounted to 8.06e-10 m2/s (293.2 K); 9.3e-10 m2/s (298.2 K); 1.04e-09 m2/s (303.2 K); 1.31e-09 m2/s (313.2 K); 1.63e-09 m2/s (323.2 K); 1.96e-09 m2/s (333.2 K).
In the case of `CC(C)C[C@H](N)C(=O)O` [L-leucine] + O, the binary diffusion coefficient was 6.41e-10 m2/s (293.2 K); 7.35e-10 m2/s (298.2 K); 8.24e-10 m2/s (303.2 K); 1.07e-09 m2/s (313.2 K); 1.33e-09 m2/s (323.2 K); 1.6e-09 m2/s (333.2 K).
For the compound `CCCCC(N)C(=O)O` (stereo not given) [2-aminohexanoic acid] + O, the binary diffusion coefficient runs as follows: (293.2 K) 6.41e-10 m2/s; (298.2 K) 7.36e-10 m2/s; (303.2 K) 8.27e-10 m2/s; (313.2 K) 1.07e-09 m2/s; (323.2 K) 1.32e-09 m2/s; (333.2 K) 1.6e-09 m2/s.
Take `CC(C)[C@H](N)C(=O)O` [L-valine] + O: the binary diffusion coefficient worked out at 6.76e-10 m2/s (293.2 K); 7.77e-10 m2/s (298.2 K); 8.91e-10 m2/s (303.2 K); 1.12e-09 m2/s (313.2 K); 1.4e-09 m2/s (323.2 K); 1.7e-09 m2/s (333.2 K).
Take `CC[C@H](C)[C@H](N)C(=O)O` [2-amino-3-methylpentanoic acid] + O: the binary diffusion coefficient was 6.41e-10 m2/s (293.2 K); 7.44e-10 m2/s (298.2 K); 8.36e-10 m2/s (303.2 K); 1.07e-09 m2/s (313.2 K); 1.33e-09 m2/s (323.2 K); 1.62e-09 m2/s (333.2 K).
For the compound `CC[C@@H](C)[C@H](N)C(=O)O` [allo-L-isoleucine] + O, the binary diffusion coefficient stood at 6.42e-10 m2/s (293.2 K); 7.38e-10 m2/s (298.2 K); 8.44e-10 m2/s (303.2 K); 1.07e-09 m2/s (313.2 K); 1.33e-09 m2/s (323.2 K); 1.61e-09 m2/s (333.2 K).
For `CC(C)(C)C(N)C(=O)O` (stereo not drawn) [DL-tert-leucine] + O, the binary diffusion coefficient (293.2 K) was 6.31e-10 m2/s; the binary diffusion coefficient (298.2 K) stood at 7.29e-10 m2/s; the binary diffusion coefficient (303.2 K) was determined as 8.46e-10 m2/s; the binary diffusion coefficient (313.2 K) amounted to 1.06e-09 m2/s; the binary diffusion coefficient (323.2 K) turned out to be 1.33e-09 m2/s; the binary diffusion coefficient (333.2 K) is 1.61e-09 m2/s.
